Assay [1] has as its target T1, Full length Human HDAC2 (Homo sapiens, UniProt Q92769).
T1 construct: Full length Human HDAC2 with; FLAG (C); host or cells: baculovirus expression system
Description: HDAC2 enzymatic assay (deacetylation of FAM-labeled peptide substrate, microfluidic electrophoresis). As to conditions: 1 uM substrate peptide. It is filed as biochemical. On the procedure: (§1) HDAC2 and HDAC1 Enzymatic Assay (HDAC2 and HDAC1 IC50 Data)
(§2) The following describes an assay protocol for measuring the deacetylation of a peptide substrate by HDAC2 or HDAC1.
(§3) HDAC protein composition and respective substrate peptides are summarized below.
(§4) HDAC reactions are assembled in 384 well plates (Greiner) in a total volume of 20 µL as following:
(§5) HDAC proteins are pre-diluted in the assay buffer comprising: 100 mM HEPES, pH 7.5, 0.1% BSA, 0.01% Triton X-100, 25 mM KCl and dispensed into 384 well plate (10 uL per well).
(§6) Test compounds are serially pre-diluted in DMSO and added to the protein samples by acoustic dispensing (Labcyte Echo). Concentration of DMSO is equalized to 1% in all samples.
(§7) Control samples (0%-inhibition in the absence of inhibitor, DMSO only) and 100%-inhibition (in the absence of enzyme) are assembled in replicates of four and used to calculate the %-inhibition in the presence of compounds.
(§8) At this step compounds can be pre-incubated with enzyme if desired.
(§9) The reactions are initiated by addition of 10 uL of the FAM-labeled substrate peptide pre-diluted in the same assay buffer. Final concentration of substrate peptide is 1 uM (HDAC1-2). The reactions are allowed to proceed at room temperature. Following incubation, the reactions are quenched by addition of 50 µL of termination buffer (100 mM HEPES, pH7.5, 0.01% Triton X-100, 0.1% SDS). Terminated plates are analyzed on a microfluidic electrophoresis instrument (Caliper LabChip® 3000, Caliper Life Sciences/Perkin Elmer) which enables electrophoretic separation of de-acetylated product from acetylated substrate. A change in the relative intensity of the peptide substrate and product is the parameter measured. Activity in each test sample is determined as the product to sum ratio (PSR): P/(S+P), where P is the peak height of the product, and S is the peak height of the substrate. Percent inhibition (Pinh) is determined using the following equation: Pinh=(PSR0% inh−PSRcompound)/(PSR0% inh−PSR100% inh)*100, in which: PSRcompound is the product/sum ratio in the presence of compound, PSR0% inh is the product/sum ratio in the absence of compound and the PSR100% inh is the product/sum ratio in the absence of the enzyme. To determine IC50 of compounds (50%-inhibition) the %-inh data (Pinh versus compound concentration) are fit by a 4 parameter sigmoid dose-response model using XLfit software (IDBS).
(§10) In the table, “A” indicates a IC50 value of less than 0.5 “B” a IC50 value from 0.5 μM to 1.0 μM; “C” a IC50 value of greater than 1.0 μM and less than or equal to 2.0 μM; and “D” indicates an IC50 value of greater than 2.0 NT=Not Tested.

For assay [2], the target named is T2, HDAC2 (Homo sapiens, UniProt Q92769).
T2 construct: host or cells: SH-SY5Y cells
Description: HDAC2 enzymatic inhibition assay in SH-SY5Y cell lysate with an exogenous substrate (HDAC-Glo 2). The conditions noted are these: for IC50: SH-SY5Y cells. It is filed as cell-based. The procedure: HDAC2 Enzymatic Inhibition Assay in SH-SY5Y Cell Lysate with an Exogenous Substrate
SH-SY5Y cells (Sigma) were cultured in Eagle's Modified Essential Medium supplemented with 10% fetal bovine serum and pen/strep. Twenty-four hours prior to compound dosing 20 uL of cells were plated in white 384 well plates at a density of 1,500 cells/well. Compounds were serially diluted in neat DMSO and then diluted 1:100 v/v into media without FBS and mixed. Media was removed from the plated cells and the diluted compounds in serum free media (1% v/v final DMSO) were added and incubated at 37.0 for five hours. Ten uL of HDAC-Glo 2 reagent with 0.1% Triton X-100 was then added, the plate was mixed and allowed to develop at room temperature for 100 minutes. Plates were then read with a Spectramax LMax luminometer employing a 0.4 s integration time. Dose response curves were constructed with normalized data where CI-994 at 100 uM was defined as 100% inhibition and DMSO alone as 0% inhibition.
In the table, “A” indicates a IC50 value of less than 0.5 μM; “B” a IC50 value from 0.5 μM to 1.0 μM; “C” a IC50 value of greater than 1.0 μM and less than or equal to 2.0 μM; and “D” indicates an IC50 value of greater than 2.0 μM. NT=Not Tested.

The target of assay [3] is T3, Full length Human HDAC1 (Homo sapiens, UniProt Q13547).
T3 construct: Full length Human HDAC1 with; His (C); FLAG (C); host or cells: baculovirus expression system
Kind of assay: HDAC1 enzymatic assay (deacetylation of FAM-labeled peptide substrate, microfluidic electrophoresis). It is filed as biochemical. The conditions noted are these: 1 uM substrate peptide. On the procedure: as §1, §2, §3, §4, §5, §6, §7, §8, §9, §10

[4] abbreviates: five hours incubation, HDAC-Glo 2 reagent, class symbols.
Setting [5] is: HDAC-Glo 2, numeric values, Table 4.
Setting [6] is: HDAC2 SH-SY5Y cell lysate assay.

Where only a bound is given, the exact number is not on record here.

T1 sequence (Q92769 whole entry): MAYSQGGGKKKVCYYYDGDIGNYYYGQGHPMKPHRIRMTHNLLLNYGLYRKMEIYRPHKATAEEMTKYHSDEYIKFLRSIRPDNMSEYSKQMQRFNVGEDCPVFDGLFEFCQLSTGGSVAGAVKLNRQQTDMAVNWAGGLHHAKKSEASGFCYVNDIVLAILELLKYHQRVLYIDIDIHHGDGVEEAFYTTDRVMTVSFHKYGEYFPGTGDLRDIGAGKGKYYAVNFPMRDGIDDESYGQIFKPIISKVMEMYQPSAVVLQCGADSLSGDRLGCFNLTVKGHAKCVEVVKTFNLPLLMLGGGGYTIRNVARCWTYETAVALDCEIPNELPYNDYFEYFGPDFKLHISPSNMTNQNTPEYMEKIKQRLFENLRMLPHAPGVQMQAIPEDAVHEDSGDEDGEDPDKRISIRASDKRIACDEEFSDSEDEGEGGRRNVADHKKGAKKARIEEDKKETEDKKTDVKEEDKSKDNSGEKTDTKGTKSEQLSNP
T2 sequence (Q92769 whole entry): as above
T3 sequence (Q13547 whole entry): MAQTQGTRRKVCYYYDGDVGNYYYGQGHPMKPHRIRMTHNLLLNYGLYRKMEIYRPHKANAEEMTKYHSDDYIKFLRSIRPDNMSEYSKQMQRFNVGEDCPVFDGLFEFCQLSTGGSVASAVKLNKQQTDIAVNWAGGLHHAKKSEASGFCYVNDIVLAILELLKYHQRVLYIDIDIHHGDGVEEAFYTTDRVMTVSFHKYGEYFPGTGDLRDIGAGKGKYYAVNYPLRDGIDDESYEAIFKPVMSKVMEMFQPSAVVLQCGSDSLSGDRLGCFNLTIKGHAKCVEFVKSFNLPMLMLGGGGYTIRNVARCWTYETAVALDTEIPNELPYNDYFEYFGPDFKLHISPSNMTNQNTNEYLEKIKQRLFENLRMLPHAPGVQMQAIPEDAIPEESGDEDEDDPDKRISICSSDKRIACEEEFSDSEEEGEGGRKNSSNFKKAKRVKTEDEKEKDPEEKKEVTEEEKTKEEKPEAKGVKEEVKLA

As to `Nc1ccc(-c2ccc(F)cc2F)nc1NC(=O)N1CCC(c2ncc(F)cn2)C1` (single isomer, unassigned) [Compound 14E1], the concentration for half-maximal inhibition (IC50) is 500 to 1000 nM in assay [1], 500 to 1000 nM in assay [2] (setting [4]) and under 500 nM in assay [3].
Turning to `Cc1cnc(C2CCN(C(=O)Nc3nc(-c4ccc(F)cc4F)ccc3N)C2)cn1` (centres unmarked) [Compound 18], the IC50 was 500 to 1000 nM in assay [1], 550 nM in assay [2] (setting [5]), 500 to 1000 nM in assay [2] (setting [4]) and 500 to 1000 nM in assay [3].
On to `Nc1ccc(-c2cccs2)nc1NC(=O)N1CCC(c2ncccn2)C1` (centres unmarked) [Compound 41], for which the IC50 in assay [1] is 500 to 1000 nM; in assay [2] (setting [4]), 500 to 1000 nM; in assay [3] it was under 500 nM.
On to `Nc1ccc(-c2cccs2)nc1NC(=O)N1CCC(c2ncc(F)cn2)C1` (centres unmarked) [Compound 49], for which the results for the IC50 in assay [1], in assay [2] (setting [4]) and in assay [3] were 1000 to 2000 nM, 1000 to 2000 nM and under 500 nM, respectively.
Regarding `Nc1ccc(-c2ccc(F)cc2)nc1NC(=O)N1CCC(c2ncccn2)C1` (centres unmarked) [Compound 19], the half-inhibitory concentration (IC50) in assay [1] was under 500 nM; in assay [2] (setting [5]), 421 nM; in assay [2] (setting [4]), under 500 nM; in assay [3], under 500 nM. Also, in assay [2] (setting [6]), the “potency compared with Comparators A-C” value is reported as “greater potency”.
Consider `Nc1ccc(-c2ccc(F)cc2F)nc1NC(=O)N1CCC(Cc2cccnn2)C1` (centres unmarked) [Compound 26], for which the IC50 was 1000 to 2000 nM in assay [1], 535 nM in assay [2] (setting [5]), 500 to 1000 nM in assay [2] (setting [4]) and 1000 to 2000 nM in assay [3].
For the compound `Nc1ccc(-c2ccc(F)cc2F)nc1NC(=O)N1CCC(Cc2ncccn2)C1` (single isomer, unassigned) [Compound 25E2], the values for the IC50 in assay [1], in assay [2] (setting [4]) and in assay [3] were over 2000 nM, 500 to 1000 nM and 1000 to 2000 nM, respectively.
For `Nc1ccc(-c2ccc(F)s2)nc1NC(=O)N1CCC(c2ncc(F)cn2)C1` (single isomer, unassigned) [Compound 44] the same measures were 500 to 1000 nM, 500 to 1000 nM and under 500 nM.
As for `Nc1ccc(-c2ccc(F)cc2F)nc1NC(=O)N1CCC(F)(c2ncccn2)C1` (centres unmarked) [Compound 29], the IC50 was 500 to 1000 nM in assay [1], 768 nM in assay [2] (setting [5]), 500 to 1000 nM in assay [2] (setting [4]) and under 500 nM in assay [3].
For `Cc1ccnc(C2CCN(C(=O)Nc3nc(-c4ccc(F)cc4F)ccc3N)C2)n1` (centres unmarked) [Compound 10], the values for the IC50 in assay [1], in assay [2] (setting [4]) and in assay [3] were 500 to 1000 nM, 1000 to 2000 nM and under 500 nM, respectively.
In the same order, the values of `Nc1ccc(-c2ccc(F)cc2F)nc1NC(=O)N1CCC(c2ccncc2)C1` (centres unmarked) [Compound 3] are over 2000 nM, over 2000 nM and over 2000 nM.
In the same order, the values of `Nc1ccc(-c2ccc(F)cc2)nc1NC(=O)N1CCC(c2ncc(F)cn2)C1` (single isomer, unassigned) [Compound 20E2] are under 500 nM, 500 to 1000 nM and under 500 nM.
Consider `Cc1cnc(C2CCN(C(=O)Nc3nc(-c4ccc(F)cc4)ccc3N)C2)o1` (centres unmarked) [Compound 46], for which the IC50 in assay [1] was 1000 to 2000 nM; in assay [2] (setting [4]), over 2000 nM; in assay [3], 500 to 1000 nM.
In the same order, the values of `Nc1ccc(-c2ccc(F)cc2F)nc1NC(=O)N1CCC(F)(c2ncccn2)C1` (single isomer, unassigned) [Compound 29E1] are under 500 nM, 500 to 1000 nM and under 500 nM.
In the same order, the values of `Nc1ccc(-c2ccc(F)cc2F)nc1NC(=O)N1CCC(c2ccccc2)C1` (centres unmarked) [Compound 4] are 1000 to 2000 nM, over 2000 nM and 500 to 1000 nM.
For `Nc1ccc(-c2ccc(F)cc2F)nc1NC(=O)N1CCC(c2ncc(F)cn2)C1` (single isomer, unassigned) [Compound 14E2] the same measures were over 2000 nM, over 2000 nM and 500 to 1000 nM.
Consider `Nc1ccc(-c2ccccc2F)nc1NC(=O)N1CCC(c2ncccn2)C1` (centres unmarked) [Compound 48], for which the figures for the IC50 in assay [1], in assay [2] (setting [4]) and in assay [3] were 1000 to 2000 nM, 1000 to 2000 nM and 500 to 1000 nM, respectively.
For `Nc1ccc(-c2ccc(F)cc2F)nc1NC(=O)N1CCC(F)(c2ncccn2)C1` (single isomer, unassigned) [Compound 29E2], the IC50 in assay [1], in assay [2] (setting [4]) and in assay [3] was 1000 to 2000 nM in each case.
In the case of `Cc1ccnc(C2CCN(C(=O)Nc3nc(-c4ccc(F)cc4)ccc3N)C2)n1` (single isomer, unassigned) [Compound 50], the 50% inhibitory concentration (IC50) in assay [1] was 1000 to 2000 nM; in assay [2] (setting [4]), over 2000 nM; in assay [3] it was 1000 nM.
For `Nc1ccc(-c2ccc(F)s2)nc1NC(=O)N1CCC(c2ncc(F)cn2)C1` (single isomer, unassigned) [Compound 43] the same measures were over 2000 nM, 1000 to 2000 nM and 1000 to 2000 nM.
As for `Nc1ccc(-c2ccc(F)cc2F)nc1NC(=O)N1CCC(Cc2ncccn2)C1` (single isomer, unassigned) [Compound 25E1], the half-maximal inhibitory concentration (IC50) was in the range of 1000 to 2000 nM in assay [1], 500 to 1000 nM in assay [2] (setting [4]) and 1000 to 2000 nM in assay [3].
For the compound `Nc1ccc(-c2ccc(F)cc2)nc1NC(=O)N1CCC(c2ncc(F)cn2)C1` (centres unmarked) [Compound 20], the IC50 is 500 to 1000 nM in assay [1], 1130 nM in assay [2] (setting [5]), 1000 to 2000 nM in assay [2] (setting [4]) and under 500 nM in assay [3]. For the same compound, the “fold more potent than Comparator A” value in assay [2] (setting [6]) is given as over 2 fold. Moreover, the “potency compared with Comparators A-C” value in assay [2] (setting [6]) is listed as “greater potency”.
Take `Nc1ccc(-c2ccccc2F)nc1NC(=O)N1CCC(c2ncc(F)cn2)C1` (centres unmarked) [Compound 21]: the 50% inhibitory concentration (IC50) in assay [1] lay in the range of 1000 to 2000 nM; in assay [2] (setting [4]), 1000 to 2000 nM; in assay [3] it was 500 to 1000 nM.
On to `Cn1ccnc1CC1CCN(C(=O)Nc2nc(-c3ccc(F)cc3F)ccc2N)C1` (centres unmarked) [Compound 36], for which the IC50 is 500 to 1000 nM in assay [1], 500 to 1000 nM in assay [2] (setting [4]) and under 500 nM in assay [3].
Regarding `Cc1ccnc(C2CCN(C(=O)Nc3nc(-c4ccc(F)cc4)ccc3N)C2)n1` (single isomer, unassigned) [Compound 51], the IC50 was 500 to 1000 nM in assay [1], 1000 to 2000 nM in assay [2] (setting [4]) and under 500 nM in assay [3].
For `Nc1ccc(-c2ccc(F)cc2)nc1NC(=O)N1CCC(c2ncccn2)C1` (single isomer, unassigned) [Compound 19E2] the same measures were under 500 nM, 500 to 1000 nM and under 500 nM.
In the same order, the values of `Nc1ccc(-c2ccc(F)s2)nc1NC(=O)N1CCC(F)(c2ncccn2)C1` (centres unmarked) [Compound 45] are 1000 to 2000 nM, 500 to 1000 nM and 500 to 1000 nM.
For `Nc1ccc(-c2ccc(F)cc2F)nc1NC(=O)N1CCC(c2cccnn2)C1` (centres unmarked) [Compound 9] the same measures were 1000 to 2000 nM, 1000 to 2000 nM and 500 to 1000 nM.

The IC50 is the concentration that inhibits the measured activity by half.

Values taken from patent US20210276978A1, “INHIBITORS OF HISTONE DEACETYLASE” (Alkermes, Inc., priority 2018, published 2021).
